Assay results as given in patent publication US20230066156A1, “6-SUBSTITUTED, 22-CYANO HYODEOXYCHOLANIC ANALOGUES AND USES THEREOF” (PRECISION BIO-THERAPEUTICS S.R.L., priority 2019, published 2023).

Target: T1, FXR (Homo sapiens, UniProt Q96RI1)
T1 construct: expressed in transfected cells; host or cells: HepG2
T1 sequence (Q96RI1 1-486): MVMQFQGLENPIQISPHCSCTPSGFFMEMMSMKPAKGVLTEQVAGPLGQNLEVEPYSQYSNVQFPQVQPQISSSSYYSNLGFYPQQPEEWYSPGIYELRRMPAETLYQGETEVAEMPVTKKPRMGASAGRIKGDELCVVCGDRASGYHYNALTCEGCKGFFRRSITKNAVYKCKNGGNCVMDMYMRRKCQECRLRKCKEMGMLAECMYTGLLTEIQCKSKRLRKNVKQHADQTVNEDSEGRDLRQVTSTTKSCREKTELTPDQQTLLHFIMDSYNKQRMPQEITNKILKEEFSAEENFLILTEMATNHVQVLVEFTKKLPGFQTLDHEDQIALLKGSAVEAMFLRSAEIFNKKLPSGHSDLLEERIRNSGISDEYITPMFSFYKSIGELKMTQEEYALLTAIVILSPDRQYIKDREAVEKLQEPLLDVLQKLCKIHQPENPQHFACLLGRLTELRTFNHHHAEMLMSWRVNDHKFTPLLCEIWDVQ
T1 sequence (P19793 1-462 partner): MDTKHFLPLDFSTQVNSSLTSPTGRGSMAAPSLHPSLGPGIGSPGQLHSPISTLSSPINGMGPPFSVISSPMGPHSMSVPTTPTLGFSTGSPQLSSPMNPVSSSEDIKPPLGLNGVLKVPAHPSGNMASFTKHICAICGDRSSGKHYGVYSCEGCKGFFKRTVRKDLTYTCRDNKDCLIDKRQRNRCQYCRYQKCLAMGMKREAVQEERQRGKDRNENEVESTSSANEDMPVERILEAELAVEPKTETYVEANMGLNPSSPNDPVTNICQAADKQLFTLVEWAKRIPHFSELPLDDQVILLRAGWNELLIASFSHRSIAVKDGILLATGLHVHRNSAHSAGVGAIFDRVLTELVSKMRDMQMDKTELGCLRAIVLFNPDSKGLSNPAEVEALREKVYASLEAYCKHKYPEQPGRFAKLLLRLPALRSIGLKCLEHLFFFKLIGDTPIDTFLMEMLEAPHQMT
Assay: FXR mediated transactivation, IR1 (hsp27)-luciferase reporter in transfected HepG2 cells
Assay type: cell-based
Settings: compound at 10 μM, HepG2, vs maximal transactivation by CDCA 10 μM, triplicate
Method: Selected compounds were tested in vitro on FXR and TGR5/GPBAR1 receptors (Table 1) using a whole cell model transfected with a reporter genes. The activity was evaluated in comparison with chenodeoxycholic acid (CDCA) and TLCA.
CDCA is a primary bile acid that functions as an endogenous ligand for FXR, while TLCA is a physiological ligand for TGR5/GPBAR1. In this assay, HepG2 cells (a liver-derived cell line) were cultured at 37° C. in minimum essential medium with Earl's salts containing 10% fetal bovine serum (FBS), 1% L-glutamine, and 1% penicillin/streptomycin. HEK-293T cells were cultured at 37° C. in D-MEM containing 10% fetal bovine serum (FBS), 1% L-glutamine, and 1% penicillin/streptomycin. The transfection experiments were performed using Fugene HD according to manufactured specifications. Cells were plated in a 24-well plate at 5×10^4 cells/well. For FXR mediated transactivation, HepG2 cells were transfected with 100 ng of pSG5-FXR, 100 ng of pSG5-RXR, 100 ng of pGL4.70 a vector encoding the human Renilla gene and 250 ng of the reporter vector p(hsp27)-TK-LUC containing the FXR response element IR1 cloned from the promoter of heat shock protein 27 (hsp27).
The data on the activity of certain compounds of the invention on TGR5/GPBAR1 are described in the following table 1. In this table, activities for compounds of the invention on GPBAR1 was compared to those of the reference compound TLCA. For % of activity, each compound was tested at the concentration of 10 microM and transactivation activity of TLCA on CRE (i.e. TGR5/GPBAR1) was considered equal to 100%. For selectivity toward FXR, activity was assessed in HepG2 cells transfected with an FXR responsive element (IR1) cloned upstream to the luciferase gene. For calculation of efficacy data, maximal transactivation of IR1 caused by each compound (10 μM) was compared to maximal transactivation caused by CDCA (10 μM). GPBAR1/FXR selectivity calculated as ratio between % of activity toward GPBAR1 and % of activity toward FXR. Each experiment was conducted in triplicate.

Compound: CC[C@]1(O)C[C@H]2[C@@H]3CC[C@H]([C@H](C)CC#N)[C@@]3(C)CC[C@@H]2[C@@]2(C)CC[C@@H](O)C[C@@H]12 [PBT110B, 3α,6α-dihydroxy-6β-ethyl-24-nor-5β-cholan-23-nitrile]
- FXR (% of activity in comparison to 10 μM CDCA): 12.3 ± 0.47%
